Measured values taken from patent publication US20150182583A1, “METHODS FOR TREATMENT AND PREVENTION OF TAUOPATHIES BY INHIBITING ENDOTHELIN RECEPTORS” (Board of Regents, The University of Texas System, priority 2012, published 2015).
“Also recorded” adds a separate entry of the source. Non-standard residues stand in square brackets, D forms with d. Residues, ends and D or L forms follow the SMILES beside them. dGly(5-dibenzosuberyl) = N[C@@H](C(=O)O)C1c2ccccc2CCc2ccccc21

Legend:
[1] = system: ET-1 stimulated astrocytes; assay: Real-time PCR of APOE/TAU mRNA in ET-1 stimulated astrocytes; type: cell-based, murine; details: ET-1 (100 nM) 24 hr; PD145065 (1 μM) added 2 hrs prior to ET-1; FIG. 12
Protocol: FIG. 12: Expression level of APOE and TAU expression level in control astrocytes and astrocytes treated with BQ123 plus […] or PD145065. Treatment groups were as follows: Control, ET-1 (100 nM), ET-1+BQ123/BQ788 (1 μM), ET-1+PD145065 (1 μM). Cells were treated with ET-1 for 24 hr. BQ123, BQ788 or PD145065 was added 2 hrs prior to ET-1 stimulation.
To determine whether ETs upregulation in astrocytes culture with tumor cells, we performed in vitro coculture experiments. Astrocytes and NIH 3T3 fibroblasts were transfected with green fluorescent protein (GFP) genes. […] RT-PCR was performed using TaqMan® Universal PCR MasterMix and quantified with an ABI 7500 real time PCR system (Applied Biosystems, Foster City, Calif.). […] Relative mRNA expression was calculated according to the […], and expressed as mean±S.D. of mRNA relative to that of control.
Astrocytes and NIH 3T3 fibroblasts were transfected with green fluorescent protein (GFP) genes. […] RT-PCR was performed using TaqMan® Universal PCR MasterMix and quantified with an ABI 7500 real time PCR system (Applied Biosystems, Foster City, Calif.). […] Relative mRNA expression was calculated according to the AACt method and expressed as mean±S.D. of mRNA relative to that of control.

[2] = system: MDA231; assay: Tumor cell-astrocyte protection assay (MDA231 protection assay); type: cell-based, human; details: FIG. 15
[3] = system: ETA and ETB receptors; assay: Immunohistochemistry of endothelin receptor phosphorylation (with the protection assay); type: cell-based; details: FIG. 15
Source text: Next the inventor used the compound PD 145065, which is a dual endothelin receptor inhibitor (antagonist), in further experiments. […] PD145065 may be administered orally to mice. Based on the in vitro data, it is anticipated that PD145065 may be used to decrease TAU in the brain in vivo.

[4] = system: TAU; assay: Mouse model of brain trauma (parenchymal wound), TAU immunofluorescent staining; type: in vivo; details: 10 mg/kg/day i.p. for 5 days prior to wounding, continued 3 days after; brains harvested 3 days after wounding
Source text: Brain parenchymal wound was created by inserting a needle (32 G-21 G) by stereotactic injection unit. In brief, a mouse was anesthetized with Nembutal ([…]) and fixed in the stereotactic injection unit. Skin incision was made in the forehead and a hole was made in the calvaria with a 21 G needle. Injection needle was inserted into the brain parenchyma (4-mm depth) and withdrawn. Hole was blocked with bone wax and skin incision was closed with skin staples.
(§1) A mouse model of brain trauma was used to evaluate the effect of a dual endothelin receptor antagonist (PD 145065) on TAU expression after a brain trauma. A parenchyma mouse model of brain trauma was used such that mice received a stereotaxically administered wound to the brain Immunochemistry was performed on brain samples to evaluate GFAP and TAU expression.
(§2) The mice were euthanatized 1, 2, or 4 days after creating the wound in the brain parenchyma. The brains were removed, fixed in formalin and stained for GFAP or (GFAP and TAU) using immunofluorescent staining.
(§3) Mice were pretreated with PD145065 10 mg/kg/day i.p. injection for 5 days prior to brain wounding. Control mice received saline injections. Treatment continued for 3 days after wounding. The brains were harvested 3 days after wounding and immunofluorescent staining immunohistochemistry experiments were performed.

[5] = system: endothelin receptors A and B; assay: Mouse model of brain trauma, endothelin receptor phosphorylation; type: in vivo; details: 10 mg/kg/day i.p. for 5 days prior to wounding, continued 3 days after
[6] = system: GFAP; assay: Mouse model of brain trauma, GFAP staining; type: in vivo; details: 10 mg/kg/day i.p. for 5 days prior to wounding, continued 3 days after
Protocol: as §1, §2, §3

[7] = system: TAU; assay: Chronic hypoxia (hypoxia chamber) in mice, TAU immunohistochemistry; type: in vivo, mouse; details: hypoxia chamber 1-3 days; daily i.p. injections, or pretreatment 7 days before 48 hours of hypoxia
Protocol: Mice were placed in a sealed plexiglass chamber with controlled input of oxygen-nitrogen gas to establish an oxygen level of 5.705% oxygen. One to 3 days later, the mice are euthanized or placed in room air (normoxia). The brains are harvested, fixed in formalin, or frozen for histology/immunohistochemistry examination. Staining for GFAP (astrocytes), TAU, endothelin receptor A or B (phosphorylation) was carried out.
Mice were placed in a hypoxia chamber for 1-3 days are taken out and divided into 2 groups: (1) treated with PD145065 (dual endothelin receptor inhibitor), or (2) saline. Treatments are by daily i.p. injections. The brains of control and treated mice are harvested 2-5 days later and processed for histological examination Immunohistochemistry for GFAP, TAU, ETAR, and ETBR (phosphorylation) was carried out.
The following methods were used for the chronic hypoxia (hypoxia chamber) experiments. Mice were placed in a sealed plexiglass chamber with controlled input of oxygen-nitrogen gas to establish an oxygen level of 5.705% oxygen. One to 3 days later, the mice were euthanized or placed in room air (normoxia). The brains were harvested, fixed in formalin, or frozen for histology/immunohistochemistry examination. Staining for GFAP (astrocytes), TAU, endothelin receptor A or B phosphorylation was carried out. […]

[8] = system: TAU; assay: Mouse model of chemo-brain (paclitaxel or TMZ), TAU immunohistochemistry; type: in vivo; details: for TAU production/expression in brain caused by the chemotherapeutic: mice bearing brain cancer (LN229 GBM) or normal mice, paclitaxel 8 mg/kg i.p. twice per week, TMZ 7.5 mg/kg p.o. daily
Protocol: The following methods were used to test for the in vivo effect of a dual endothelin receptor on a mouse model of chemo-brain. PD145065: SIGMA (SCP0143, 5 mg) was reconstituted in PBS containing 0.1% BSA. Temozolomide (TMZ): SIGMA (T2577-100 MG), was reconstituted in DMSO (10 mg/mL) with sonication and diluted in HBSS before treatment TAXOL (paclitaxel): Hospira (NDC 61703-342-09, 6 mg/mL) was diluted in saline before treatment. Mice were treated for 6 weeks with either TMZ (7.5 mg/kg, p.o., daily) or paclitaxel (8 mg/kg, i.p., twice per week) with or without PD145065 (10 mg/kg, i.p., daily). Treatment groups were as follows:
Mice were euthanized and the brains were collected and frozen (OCT) or placed in formalin and embedded in paraffin and then processed for IHC. Female nude mice were treated with Taxol (8 mg/kg) i.p. twice per week for six weeks. […] Female nude mice were treated orally with 7.5 mg/kg TMZ every day for six weeks.

[9] = Body weight of mice treated with paclitaxel with or without PD145065; type: in vivo, mouse
Protocol: Studies to evaluated prevention and/or treatment of chemo-brain by PD145065 were performed. Female athymic nude mice (NCI-nu) were used in these studies. Mice were used in these experiments in accordance with institutional guidelines when they were 14-16 weeks old. Mice were randomized as follows;
Mice showing weight loss, dehydration (poor skin tugor) or poor movement (poor oral intake, decreased ambulation, etc.) were defined as symptomatic mice.
Prevention and/or treatment of Chemo-brain by PD145065 was evaluated via the following protocol. Treatment continued for 12 weeks and treatment and prevention groups were defined as follows: […]
(1) Treatment group—mice receiving TMZ or taxol (group 3 or 4) and showing symptoms defined above for two consecutive weeks began to receive PD145065;
(3) Prevention group—mice were receiving (PD+TMZ) or (PD+taxol) for 12 weeks (group 5 or 6).

Compound | APOE/TAU mRNA expression [1] | blocking the ability of astrocytes protection of tumor cells from chemotherapy [2] | phosphorylation of ETA and ETB receptors [3] | TAU expression / TAU positive cells in brain after wound [4] | phosphorylation of endothelin receptors A and B (ETAR, ETBR) in wounded brain [5] | GFAP in wounded brain [6] | TAU expression in brain resulting from hypoxia [7] | TAU expression in brain of mice treated with paclitaxel or TMZ ([8]; PD145065 10 mg/kg i.p. daily, 6 weeks, TMZ 7.5 mg/kg p.o. daily or paclitaxel 8 mg/kg i.p. twice per week) | weight loss associated with paclitaxel, prevention (co-administration) ([9]; PD 10 mg/kg i.p. daily plus taxol 8 mg/kg i.p. twice per week, FIG. 23) | weight loss associated with paclitaxel, treatment group ([9]; PD145065 given to mice receiving paclitaxel beginning on day 49, FIG. 22) | TAU production/expression in brain caused by the chemotherapeutic [8] | TAU production/expression in brain caused by the chemotherapeutic ([8]; listed as Taxol) | body weight of paclitaxel-treated mice ([9]; paclitaxel alone, FIG. 22) | TAU production/expression in brain caused by the chemotherapeutic ([8]; listed as TMZ)
CC[C@H](C)[C@H](NC(=O)[C@H](CC(=O)O)NC(=O)[C@H](CC(C)C)NC(=O)[C@H](NC(C)=O)C1c2ccccc2CCc2ccccc21)C(=O)N[C@H](C(=O)N[C@@H](Cc1c[nH]c2ccccc12)C(=O)O)[C@@H](C)CC [PD145065, N-Acetyl-α-[10,11-Dihydro-5H-dibenzo[a,d]cycloheptadien-5-yl]-D-Gly-Leu-Asp-Ile-Ile-Trp] (Ac-[dGly(5-dibenzosuberyl)]LDIIW-OH) | observed to have an effect | as effective as the combination of BQ123 and BQ788 | can prevent phosphorylation | not in brains of mice pretreated; also recorded: significantly diminished or eliminated; also recorded: negative; also recorded: reduced tau expression | inhibited phosphorylation; also recorded: reduced phosphorylation or be not phosphorylated | unchanged; also recorded: contain activated (GFAP-positive) astrocytes | inhibited TAU expression; also recorded: significantly lower than in the brains of control mice; also recorded: reduced tau expression; also recorded: significant decrease in TAU expression | significantly reduced TAU expression | completely inhibit the weight loss | reversal of the weight loss | – | – | – | –
CC(=O)O[C@H]1C(=O)[C@@]2(C)[C@H]([C@H](OC(=O)c3ccccc3)[C@]3(O)C[C@H](OC(=O)[C@H](O)[C@@H](NC(=O)c4ccccc4)c4ccccc4)C(C)=C1C3(C)C)[C@]1(OC(C)=O)CO[C@@H]1C[C@@H]2O [paclitaxel] | – | – | – | – | – | – | – | – | – | – | result in the production of TAU | high expression of TAU | loss of weight | –
Cn1nnc2c(C(N)=O)ncn2c1=O [temozolomide] | – | – | – | – | – | – | – | – | – | – | result in the production of TAU | – | – | high expression of TAU
